Measured values reported in PubChem BioAssay (NCI).
Values joined by “and” are separate entries in the source; they are usually repeats but may differ in a detail not shown here. Identical values can stand only once.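 96-well plates; 48 h exposure; 5 concentrations. Endpoints by linear interpolation between flanking doses. Not reached: highest tested concentration assigned. GI50 marks 50% less growth. TGI marks complete inhibition of growth.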

Legend:
Assay in all cases: NCI tumour cell line growth inhibition, 48 h
MALME-3M melanoma = system: MALME-3M melanoma
T-47D breast = system: T-47D breast
COLO 205 colon = system: COLO 205 colon
SF-295 CNS = system: SF-295 CNS
SK-MEL-5 melanoma = system: SK-MEL-5 melanoma
NCI-H226 lung = system: NCI-H226 lung
OVCAR-5 ovarian = system: OVCAR-5 ovarian
SNB-75 CNS = system: SNB-75 CNS
DU-145 prostate = system: DU-145 prostate
SK-MEL-2 melanoma = system: SK-MEL-2 melanoma
SNB-19 CNS = system: SNB-19 CNS
SF-268 CNS = system: SF-268 CNS
XF 498 CNS = system: XF 498 CNS
HS 578T breast = system: HS 578T breast
UACC-62 melanoma = system: UACC-62 melanoma

CN1C(=O)CC2(C)c3cc(O)ccc3N(C)C12 (configuration not stated)
GI50 (MALME-3M melanoma): > 75 µM
TGI (MALME-3M melanoma): > 75 µM and 93.5 µM
GI50 (T-47D breast): > 75 µM
TGI (T-47D breast): > 91.2 µM
GI50 (COLO 205 colon): 24.1 µM
TGI (COLO 205 colon): 75 µM and 63.1 µM
GI50 (SF-295 CNS): 13 µM
TGI (SF-295 CNS): 23.7 µM and 54.9 µM
GI50 (SK-MEL-5 melanoma): 54.1 µM
TGI (SK-MEL-5 melanoma): 75 µM and 50.5 µM
GI50 (NCI-H226 lung): 19.5 µM
TGI (NCI-H226 lung): 54.4 µM and 71.9 µM
TGI (OVCAR-5 ovarian): 59.6 µM
GI50 (SNB-75 CNS): > 75 µM
TGI (SNB-75 CNS): > 75 µM and 68.3 µM
GI50 (DU-145 prostate): > 75 µM
TGI (DU-145 prostate): > 75 µM
GI50 (SK-MEL-2 melanoma): > 75 µM
TGI (SK-MEL-2 melanoma): > 94.3 µM
GI50 (SNB-19 CNS): > 75 µM
TGI (SNB-19 CNS): > 75 µM and 68.1 µM
GI50 (SF-268 CNS): 38.6 µM
TGI (SF-268 CNS): 75 µM and 60.6 µM
TGI (XF 498 CNS): 33 µM
GI50 (HS 578T breast): 23.7 µM
TGI (HS 578T breast): 69.3 µM and > 90.2 µM
TGI (UACC-62 melanoma): 38.6 µM and 45.5 µM
